Consider six molecules from patent US11684616B2, “Azalactam compounds as HPK1 inhibitors” (PFIZER INC., priority 2020, dated 2023).

In assay [1] the test system is Phospho-SLP-76 (Ser376) in Jurkat cells. In words: Phospho-SLP-76 (Ser376) HTRF assay in anti-CD3 stimulated Jurkat cells. Format: cell-based. The following applies: Homo sapiens, Jurkat, 30 min pre-treatment, anti-CD3 stimulation 15 min, read-out: pSLP76 IC50. An outline of the steps: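 Jurkat cells pre-treated 30 min with compound (11-point 3-fold series, final 10 μM to 0.1 nM, 0.1% DMSO), then stimulated 15 min at 37° C with 200 μg/mL F(ab)2-complexed anti-CD3 (UCTH1). Lysate phospho-SLP-76 read by HTRF sandwich after overnight RT incubation; IC50 from four-parameter fit.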

In assay [2] the target is Human recombinant full-length GST-tagged PRKD2 (PKD2) (Homo sapiens (Human), UniProt Q9BZL6). In words: Biochemical selectivity kinase assay (Z'-LYTE FRET), PRKD2. To be noted: for IC50: 25 μM ATP (~Km); for PRKD2 IC50/HPK1 Ki: ratio of the PRKD2 IC50 to the HPK1 Ki. The source says: (§1) Biochemical Selectivity Kinase Assay.
Human recombinant full-length GST-tagged PRKD2 (PKD2), sequence (Q9BZL6 whole entry): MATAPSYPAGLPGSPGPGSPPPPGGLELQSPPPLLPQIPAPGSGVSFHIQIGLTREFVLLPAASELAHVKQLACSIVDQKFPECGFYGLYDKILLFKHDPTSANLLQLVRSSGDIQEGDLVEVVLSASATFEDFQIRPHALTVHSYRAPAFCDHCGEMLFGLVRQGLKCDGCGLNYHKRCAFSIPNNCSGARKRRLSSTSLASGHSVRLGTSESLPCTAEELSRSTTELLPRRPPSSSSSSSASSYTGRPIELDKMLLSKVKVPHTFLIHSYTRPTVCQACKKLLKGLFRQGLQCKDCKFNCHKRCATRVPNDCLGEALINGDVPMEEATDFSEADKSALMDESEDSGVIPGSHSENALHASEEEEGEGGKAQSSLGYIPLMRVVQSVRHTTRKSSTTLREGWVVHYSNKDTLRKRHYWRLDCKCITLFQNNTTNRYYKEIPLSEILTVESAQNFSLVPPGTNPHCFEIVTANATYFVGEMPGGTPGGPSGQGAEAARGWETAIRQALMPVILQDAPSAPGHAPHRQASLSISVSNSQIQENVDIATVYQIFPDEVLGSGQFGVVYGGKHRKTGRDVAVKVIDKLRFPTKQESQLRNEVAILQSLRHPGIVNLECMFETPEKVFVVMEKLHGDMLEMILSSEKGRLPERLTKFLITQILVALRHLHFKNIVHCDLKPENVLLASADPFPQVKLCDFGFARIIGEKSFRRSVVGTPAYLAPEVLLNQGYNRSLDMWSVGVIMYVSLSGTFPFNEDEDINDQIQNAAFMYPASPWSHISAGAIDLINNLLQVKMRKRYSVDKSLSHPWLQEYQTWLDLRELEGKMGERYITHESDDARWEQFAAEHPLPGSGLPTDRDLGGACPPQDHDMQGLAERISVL
(§2) The dose response curve was curve fit to model number 205 (sigmoidal dose-response model). A ratio of the PRKD2 IC50 to the HPK1 Ki and a ratio of the RSK3 IC50 to the HPK1 Ki, is provided in the respective columns adjacent to the columns for PRKD2 IC50 and RSK3 IC50.

Assay [3] addresses Human recombinant full-length GST-tagged RPS6KA2 (RSK3) (Homo sapiens (Human), UniProt Q15349). In words: Biochemical selectivity kinase assay (Z'-LYTE FRET), RSK3. The following applies: for IC50: 10 μM ATP (~Km); for RSK3 IC50/HPK1 Ki: ratio of the RSK3 IC50 to the HPK1 Ki.
Text: as §1, §2

In assay [4] the target is human full-length autophosphorylated recombinant HPK1 (Homo sapiens (Human), UniProt Q92918). In words: HPK1 biochemical enzyme assay (chelation-enhanced fluorescence, CHEF). To be noted: 0.5 nM HPK1, 45 μM ATP, Morrison fit. An outline of the steps: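 Autophosphorylated full-length human HPK1 from Sf21 cells, His-tag removed by TEV, residual N-terminal Gly-Ser. Activity measured with a C-Sox fluorescent peptide substrate (CHEF); initial velocities followed at λex 360/λem 500 nm, 30 °C for 15 min.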
human full-length autophosphorylated recombinant HPK1, sequence (Q92918 other isoform, or with tags, fused parts or gaps): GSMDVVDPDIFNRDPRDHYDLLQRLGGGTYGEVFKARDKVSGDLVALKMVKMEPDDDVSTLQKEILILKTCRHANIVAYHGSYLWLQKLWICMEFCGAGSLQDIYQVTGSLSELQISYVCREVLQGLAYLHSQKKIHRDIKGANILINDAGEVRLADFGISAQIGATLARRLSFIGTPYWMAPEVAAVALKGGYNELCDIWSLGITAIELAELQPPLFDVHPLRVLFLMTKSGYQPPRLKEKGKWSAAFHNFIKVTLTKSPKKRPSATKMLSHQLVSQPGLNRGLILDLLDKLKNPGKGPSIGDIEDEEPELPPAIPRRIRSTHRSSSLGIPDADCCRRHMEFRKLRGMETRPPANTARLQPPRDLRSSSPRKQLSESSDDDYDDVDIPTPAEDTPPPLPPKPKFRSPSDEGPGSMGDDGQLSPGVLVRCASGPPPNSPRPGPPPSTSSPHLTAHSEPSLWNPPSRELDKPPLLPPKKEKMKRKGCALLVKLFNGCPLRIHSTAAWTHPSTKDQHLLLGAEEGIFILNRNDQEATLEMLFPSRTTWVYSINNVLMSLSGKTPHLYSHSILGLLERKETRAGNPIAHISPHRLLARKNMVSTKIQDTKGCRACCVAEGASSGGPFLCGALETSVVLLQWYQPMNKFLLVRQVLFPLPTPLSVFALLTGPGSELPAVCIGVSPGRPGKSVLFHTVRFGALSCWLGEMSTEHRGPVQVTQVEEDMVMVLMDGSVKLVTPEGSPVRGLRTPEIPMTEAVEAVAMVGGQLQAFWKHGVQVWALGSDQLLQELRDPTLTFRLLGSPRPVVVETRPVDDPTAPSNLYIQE

Structures are written as SMILES.

Human recombinant full-length GST-tagged RPS6KA2 (RSK3), sequence (Q15349 whole entry): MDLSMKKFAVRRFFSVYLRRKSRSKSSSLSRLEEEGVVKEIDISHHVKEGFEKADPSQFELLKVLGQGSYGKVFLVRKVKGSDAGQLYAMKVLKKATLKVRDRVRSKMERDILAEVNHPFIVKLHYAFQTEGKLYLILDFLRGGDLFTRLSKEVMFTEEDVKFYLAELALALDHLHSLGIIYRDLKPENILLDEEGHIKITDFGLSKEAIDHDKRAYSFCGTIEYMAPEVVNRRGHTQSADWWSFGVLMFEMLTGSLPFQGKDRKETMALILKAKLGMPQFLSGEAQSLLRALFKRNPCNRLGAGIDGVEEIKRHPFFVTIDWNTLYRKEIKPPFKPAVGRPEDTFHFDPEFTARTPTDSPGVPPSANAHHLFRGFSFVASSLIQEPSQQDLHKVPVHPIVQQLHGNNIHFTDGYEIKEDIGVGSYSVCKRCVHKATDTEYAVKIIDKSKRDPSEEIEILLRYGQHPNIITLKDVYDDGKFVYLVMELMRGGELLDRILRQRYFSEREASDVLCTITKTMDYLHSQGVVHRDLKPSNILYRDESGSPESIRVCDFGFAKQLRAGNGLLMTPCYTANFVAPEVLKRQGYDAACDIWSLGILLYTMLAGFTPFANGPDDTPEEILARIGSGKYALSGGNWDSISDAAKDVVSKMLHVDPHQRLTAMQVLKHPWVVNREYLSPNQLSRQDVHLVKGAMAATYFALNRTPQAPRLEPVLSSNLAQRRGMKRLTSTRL

For `CC[C@H]1CCc2nnc(-c3cccc(N4Cc5c(cc(N(C)C(C)C)nc5CNC)C4=O)n3)n21` [Example 201, 2-{6-[(5S)-5-ethyl-6,7-dihydro-5H-pyrrolo[2,1-c][1,2,4]triazol-3-yl]pyridin-2-yl}-4-[(methylamino)methyl]-6-[methyl(propan-2-yl)amino]-2,3-dihydro-1H-pyrrolo[3,4-c]pyridin-1-one], the IC50 in assay [1] came to 37 nM. In addition, in assay [2], the IC50 is 5.43 nM and the “PRKD2 IC50/HPK1 Ki” value was over 108. Besides, in assay [3], the IC50 was 6.73 nM and the “RSK3 IC50/HPK1 Ki” value was over 134. The Ki in assay [4] is under 0.05 nM.

In the case of `CC[C@H]1CCc2nnc(-c3cccc(N4Cc5c(cc(N6CCC[C@H]6C)nc5CNC)C4=O)n3)n21` [Example 200, 2-{6-[(5S)-5-ethyl-6,7-dihydro-5H-pyrrolo[2,1-c][1,2,4]triazol-3-yl]pyridin-2-yl}-4-[(methylamino)methyl]-6-[(2R)-2-methylpyrrolidin-1-yl]-2,3-dihydro-1H-pyrrolo[3,4-c]pyridin-1-one], the IC50 in assay [1] was 16 nM. In addition, in assay [2], the IC50 came to 7.97 nM and the “PRKD2 IC50/HPK1 Ki” value was over 160. For the same molecule, in assay [3], the IC50 was found to be 10.1 nM and the “RSK3 IC50/HPK1 Ki” value is listed as over 200. For the same molecule, the Ki in assay [4] is under 0.05 nM.

Turning to `CCn1cnnc1-c1cccc(N2Cc3c(cc(N4CCC[C@H]4C)nc3C(C)(C)N)C2=O)n1` [Example 100, 4-(2-aminopropan-2-yl)-2-[6-(4-ethyl-4H-1,2,4-triazol-3-yl)pyridin-2-yl]-6-[(2R)-2-methylpyrrolidin-1-yl]-2,3-dihydro-1H-pyrrolo[3,4-c]pyridin-1-one], the IC50 in assay [1] worked out at 39 nM. In assay [2], the IC50 was found to be 51.2 nM and the “PRKD2 IC50/HPK1 Ki” value was over 1020. In assay [3], the IC50 is 15.5 nM and the “RSK3 IC50/HPK1 Ki” value is given as over 320. In addition, in assay [4], the Ki was under 0.05 nM.

`CC[C@H]1CCc2nnc(-c3cccc(N4Cc5c(cc(N6CCC[C@H]6C)nc5[C@H](C)N)C4=O)n3)n21` [Example 3, 4-[(1S)-1-aminoethyl]-2-{6-[(5S)-5-ethyl-6,7-dihydro-5H-pyrrolo[2,1-c][1,2,4]triazol-3-yl]pyridin-2-yl}-6-[(2R)-2-methylpyrrolidin-1-yl]-2,3-dihydro-1H-pyrrolo[3,4-c]pyridin-1-one]: the IC50 in assay [1] is 34 nM. In addition, in assay [2], the IC50 is 6.54 nM and the “PRKD2 IC50/HPK1 Ki” value is over 130. Besides, in assay [3], the IC50 is 3.33 nM and the “RSK3 IC50/HPK1 Ki” value is listed as over 66. Besides, the Ki in assay [4] was under 0.05 nM.

`CNCc1nc(N2CCC[C@H]2C)cc2c1CN(c1cccc(-c3nnc4n3[C@@H](CF)CC4)n1)C2=O` [Example 202, 2-{6-[(5R)-5-(fluoromethyl)-6,7-dihydro-5H-pyrrolo[2,1-c][1,2,4]triazol-3-yl]pyridin-2-yl}-4-[(methylamino)methyl]-6-[(2R)-2-methylpyrrolidin-1-yl]-2,3-dihydro-1H-pyrrolo[3,4-c]pyridin-1-one]: the IC50 in assay [1] amounted to 25 nM. In assay [2], the IC50 was found to be 6.54 nM and the “PRKD2 IC50/HPK1 Ki” value came to 108. Also, in assay [3], the IC50 amounted to 40.1 nM and the “RSK3 IC50/HPK1 Ki” value is 667. Besides, in assay [4], the Ki was found to be 0.06 nM.

For the molecule `CC[C@H]1CCc2nnc(-c3cccc(N4Cc5c(cc(N6CCC[C@H]6C)nc5[C@@H](C)N)C4=O)n3)n21` [Example 2, 4-[(1R)-1-aminoethyl]-2-{6-[(5S)-5-ethyl-6,7-dihydro-5H-pyrrolo[2,1-c][1,2,4]triazol-3-yl]pyridin-2-yl}-6-[(2R)-2-methylpyrrolidin-1-yl]-2,3-dihydro-1H-pyrrolo[3,4-c]pyridin-1-one], the IC50 in assay [1] was found to be 30 nM. For the same molecule, in assay [2], the IC50 came out at 116 nM and the “PRKD2 IC50/HPK1 Ki” value is on record as over 2320. Also, in assay [3], the IC50 was found to be 21.3 nM and the “RSK3 IC50/HPK1 Ki” value is over 420. Moreover, the Ki in assay [4] was under 0.05 nM.
